For the data set, the target named is T1, CD137 (Homo sapiens, UniProt Q07011).
T1 construct: host or cells: Jurkat reporter cells from the Promega kit, co-cultured with tumour cells (NCI-H292, PC3 or RKO)
The experiment in a line: CD137 reporter assay co-culture with RKO tumour cells (PD-L1/CD137 heterotandems). It counts as cell-based. To be noted: Jurkat CD137 reporter cells co-cultured with RKO (PD-L1), 6 h; read-out: Fold Induction over background. The method, then: Culture medium, referred to as R1 media, is prepared by adding 1% FBS to RPMI-1640 (component of Promega kit CS196005). Serial dilutions of test articles in R1 are prepared in a sterile 96 well-plate. Add 25 μL per well of test articles or R1 (as a background control) to designated wells in a white cell culture plate. Tumour cells* are harvested and resuspended at a concentration of 400,000 cells/mL in R1 media. Twenty five (25) μL/well of tumour cells are added to the white cell culture plate. Jurkat cells (Promega kit CS196005, 0.5 mL) are thawed in the water bath and then added to 5 ml pre-warmed R1 media. Twenty five (25) μL/well of Jurkat cells are then added to the white cell culture plate. Incubate the cells and test articles for 6 h at 37° C., 5% CO2. At the end of 6 h, add 75 μL/well Bio-Glo™ reagent (Promega) and incubate for 10 min before reading luminescence in a plate reader (Clariostar, BMG). The fold change relative to cells alone (Jurkat cells+Cell line used in co-culture) is calculated and plotted in GraphPad Prism as log(agonist) vs response to determine EC50 (nM) and Fold Induction over background (Max).
The tumour cell type used in co-culture for EphA2 is PC3. The tumour cell type used in co-culture for PD-L1 is RKO.
A summary of the fold induction induced by PD-L1/CD137 heterotandem peptides in the CD137 reporter coculture assay with RKO cells is shown in Table 3.

Molecules are shown by their SMILES. *1 amine or outer side, *2 acyl side, *3 side chain or, on linkers, in order; H or OH if unused. Where a SMILES comes first, the peptide text is derived from it. Bridges are numbered along the chain shown (N, C = ends). Roman numbers before positions name the chains, in order. [ ]: non-standard residue; d: D form. TATA = O=C(CC[*:1])N1CN(C(=O)CC[*:2])CN(C(=O)CC[*:3])C1; X2 = O=C(CCOCCOCCOCCOCCOCCn1cc(CCC(=O)[*:2])nn1)[*:1]; hArg = N=C(N)NCCCC[C@H](N)C(=O)O; tBuAla = CC(C)(C)C[C@H](N)C(=O)O; Nle = CCCC[C@H](N)C(=O)O

T1 sequence (Q07011 24-255): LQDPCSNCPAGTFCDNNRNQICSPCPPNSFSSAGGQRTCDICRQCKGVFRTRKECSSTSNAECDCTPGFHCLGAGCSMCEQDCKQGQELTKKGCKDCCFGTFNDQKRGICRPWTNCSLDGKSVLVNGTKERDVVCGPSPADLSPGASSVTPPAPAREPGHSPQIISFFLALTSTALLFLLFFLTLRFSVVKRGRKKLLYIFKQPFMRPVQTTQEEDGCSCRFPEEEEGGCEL

With `CCCC[C@@H]1NC(=O)[C@H](Cc2ccc(O)cc2)NC(=O)[C@@H]2CCCN2C(=O)[C@H](CC(=O)O)NC(=O)[C@H](C)NC(=O)[C@H](Cc2ccccc2)NC(=O)[C@@H]2CSCCC(=O)N3CN(CN(C3)C(=O)CCSC[C@@H](C(=O)N[C@@H](C)C(N)=O)NC1=O)C(=O)CCSC[C@H](NC(C)=O)C(=O)N[C@@H](CC(C)(C)C)C(=O)N1CCC[C@H]1C(=O)N[C@@H](CCC(=O)O)C(=O)N[C@H](CCCCNC(=O)CCc1cn(CCOCCOCCOCCOCCOCCC(=O)NCCCC[C@@H]3NC(=O)[C@H](CO)NC(=O)[C@@H](NC(=O)[C@H](CCCCNC(=N)N)NC(=O)[C@H](CC(=O)O)NC(C)=O)CSCCC(=O)N4CN5CN(C4)C(=O)CCSC[C@@H](C(=O)N4CCC[C@H]4C(=O)N[C@@H](CO)C(=O)N[C@@H](Cc4c[nH]cn4)C(N)=O)NC(=O)[C@H](CC(C)C)NC(=O)[C@H](Cc4c[nH]cn4)NC(=O)[C@H](CC(C)C)NC(=O)[C@H](CCCCNC(C)=O)NC(=O)[C@H](CCC(N)=O)NC(=O)[C@H](CSCCC5=O)NC(=O)[C@H](CCSC)NC(=O)[C@H]([C@@H](C)O)NC(=O)[C@H](CC(C)C)NC(=O)[C@H](Cc4c[nH]c5ccccc45)NC(=O)CNC3=O)nn1)C(=O)N1CCC[C@H]1C(=O)N[C@@H](Cc1ccc(O)cc1)C(=O)N2` [BCY12230] (I: Ac-D[hArg]CSKGWLTMCQK(Ac)LHLCPSH-NH2 / II: Ac-C[tBuAla]PE[dK]PYCFADPY[Nle]CA-NH2; linker I:3-I:11-I:17, II:1-II:8-II:15 via TATA; linker I:5-II:5 via X2), the fold induction was determined as 10.
In the case of `CCCC[C@@H]1NC(=O)[C@H](Cc2ccc(O)cc2)NC(=O)[C@@H]2CCCN2C(=O)[C@H](CC(=O)O)NC(=O)[C@H](C)NC(=O)[C@H](Cc2ccccc2)NC(=O)[C@@H]2CSCCC(=O)N3CN(CN(C3)C(=O)CCSC[C@@H](C(=O)N[C@@H](C)C(N)=O)NC1=O)C(=O)CCSC[C@H](NC(C)=O)C(=O)N[C@@H](CC(C)(C)C)C(=O)N1CCC[C@H]1C(=O)N[C@@H](CCC(=O)O)C(=O)N[C@H](CCCCNC(=O)CCc1cn(CCOCCOCCOCCOCCOCCC(=O)NCCCC[C@@H]3NC(=O)[C@H](CC(C)C)NC(=O)[C@H](CCCCNC(C)=O)NC(=O)[C@H](CCC(N)=O)NC(=O)[C@@H]4CSCCC(=O)N5CN(CN(C5)C(=O)CCSC[C@@H](C(=O)N5CCC[C@H]5C(=O)N[C@@H](CO)C(=O)N[C@@H](Cc5c[nH]cn5)C(N)=O)NC(=O)[C@H](CC(C)C)NC3=O)C(=O)CCSC[C@H](NC(=O)[C@H](CCCCNC(=N)N)NC(=O)[C@H](CC(=O)O)NC(C)=O)C(=O)N[C@@H](CO)C(=O)N[C@@H](C)C(=O)NCC(=O)N[C@@H](Cc3c[nH]c5ccccc35)C(=O)N[C@@H](CC(C)C)C(=O)N[C@@H]([C@@H](C)O)C(=O)N[C@@H](CCSC)C(=O)N4)nn1)C(=O)N1CCC[C@H]1C(=O)N[C@@H](Cc1ccc(O)cc1)C(=O)N2` [BCY12242] (I: Ac-D[hArg]CSAGWLTMCQK(Ac)LKLCPSH-NH2 / II: Ac-C[tBuAla]PE[dK]PYCFADPY[Nle]CA-NH2; linker I:3-I:11-I:17, II:1-II:8-II:15 via TATA; linker I:15-II:5 via X2), the fold induction came to 13.

(Values after patent publication US11332500B2, “Heterotandem bicyclic peptide complexes” (BicycleTx Limited, priority 2019, dated 2022).)
